# Experimental data taken from patent publication US20120202847A1, “Novel Tetrahydroisoquinoline Compounds” (priority 2009, published 2012).
# Tested on: C57BL/6N mice
# Assay: Feeding suppressant activity on a high-fat diet
# Assay type: in vivo
# Conditions: male C57BL/6N mice, oral dose of 3 mg/kg; food intake 6 hours after initiation of high-fat diet feeding
# Experimental: Male C57BL/6N mice (7-12 weeks old, body weight: 17-25 g, Charles River Laboratories Japan Inc.) were individually housed and fed on a high-fat diet (fat content: 45 kcal %: Research Diets, Inc. D12451) for 1 week or longer for acclimatization. Based on the food intake during the period, the animals were equally assigned to experimental groups and fasted overnight. Then, a vehicle (0.5% methylcellulose) or each test compound (1 to 10 mg/kg) suspended in vehicle was orally administered (10 mL/kg) to each group. 30 minutes after administration, the animals were fed on a high-fat diet, and the food intake was measured 6 hours after initiation of feeding. The feeding suppressant activity of each test compound was calculated based on the equation shown below.
# Feeding suppressant activity(%)=[(Food intake of Vehicle group)−(Food intake of each test compound group)]/[(Food intake of Vehicle group)]×100
row,SMILES,Feeding suppressant activity
1,"O=C(O)C[C@H]1CC[C@H](OC(=O)N2CCc3cc(NC(=O)Nc4ccccc4Cl)ccc3C2)CC1 [Example 2, trans-6-[3-(2-chloro-phenyl)-ureido]-3,4-dihydro-1H-isoquinoline-2-carboxylic acid 4-carboxymethyl-cyclohexyl ester]",70%

# Biological target: T1, DGAT1 enzyme (Homo sapiens, UniProt O75907)
# T1 construct: made in house
# T1 sequence (O75907 1-488): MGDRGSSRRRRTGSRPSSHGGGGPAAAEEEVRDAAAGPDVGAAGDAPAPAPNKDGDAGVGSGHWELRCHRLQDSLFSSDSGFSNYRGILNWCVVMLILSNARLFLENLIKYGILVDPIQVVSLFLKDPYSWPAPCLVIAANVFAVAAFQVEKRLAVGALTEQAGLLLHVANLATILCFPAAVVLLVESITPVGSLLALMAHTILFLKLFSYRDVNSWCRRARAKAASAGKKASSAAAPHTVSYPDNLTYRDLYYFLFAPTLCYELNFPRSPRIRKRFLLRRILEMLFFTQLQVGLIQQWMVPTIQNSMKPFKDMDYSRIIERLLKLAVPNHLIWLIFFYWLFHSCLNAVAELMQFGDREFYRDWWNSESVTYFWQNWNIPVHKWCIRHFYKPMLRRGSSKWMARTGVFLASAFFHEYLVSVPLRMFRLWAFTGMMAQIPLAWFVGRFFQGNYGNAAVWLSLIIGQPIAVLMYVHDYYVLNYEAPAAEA
# Assay: DGAT1 inhibitory activity test
# Assay type: biochemical
# Conditions: test compound concentration of 0.05 μg/ml; [14C]-oleoyl-CoA, 23° C., 30 minutes; read-out: Inhibitory Rate
# Experimental: (1) Preparation of DGAT1 Enzyme
# DGAT1 enzyme was prepared and stored according to the method described in US2007/0249620.
# (2) DGAT1 Inhibitory Activity Test
# A reaction solution having the following composition was incubated at room temperature (23° C.) for 30 minutes: 175 mM Tris-HCl (pH 8.0), 8 mM MgCl2, 1 mg/ml BSA, 0.3 mM 1,2-dioleoyl-sn-glycerol (10-fold concentration of EtOH solution, 10% added), 10 μM [^14C]-oleoyl-CoA (approximately 50 mCi/mmol), 0.5% Triton X-100, the DGAT1 enzyme (10 μg) obtained in Test Example 1(1), and a test compound or vehicle (DMSO/MeOH, 7:3 solution, 5% added), 50 μl in total. A reaction stop solution […] consisting of isopropanol/1-heptane/water (80:20:2, v/v/v) was added to the reaction solution and stirred. Subsequently, water […] and 1-heptane (100 μl) were added thereto and stirred. The 1-heptane layer […] was spotted onto a TLC plate and developed with a developing solvent consisting of 1-hexane/diethyl ether/acetic acid (85:15:1, v/v/v). The radioactivity of the triglyceride fraction was quantified using BAS2500 Bio Image Analyzer (FUJIFILM) and compared with the control. The inhibitory activity of the test compound was calculated according to the formula shown below. In this context, the radioactivity at no reaction (0 minute incubation) was used as background.
# Inhibitory Rate=100−[(Radioactivity of sample supplemented with test compound)−(Background)]/[(Radioactivity of control)−(Background)]×100
row,SMILES,inhibition at 0.05 µg/mL
1,Cc1cc(Cl)ccc1NC(=O)Nc1ccc2c(c1)CCN(C(=O)O[C@H]1CC[C@H](CC(=O)O)CC1)C2 [Example 26],≥ 50%
2,"O=C(O)C[C@H]1CC[C@H](OC(=O)N2CCc3cc(NC(=O)Nc4ccc(Cl)cc4C(F)(F)F)ccc3C2)CC1 [Example 28, trans-6-[3-(4-chloro-2-trifluoromethyl-phenyl)-ureido]-3,4-dihydro-1H-isoquinoline-2-carboxylic acid 4-carboxymethyl-cyclohexyl ester]",≥ 50%
3,"O=C(O)C[C@H]1CC[C@H](OC(=O)N2CCc3cc(NC(=O)Nc4ccc(C(F)(F)F)cc4Cl)ccc3C2)CC1 [Example 29, trans-6-[3-(2-chloro-4-trifluoromethyl-phenyl)-ureido]-3,4-dihydro-1H-isoquinoline-2-carboxylic acid 4-carboxymethyl-cyclohexyl ester]",≥ 50%
4,"Cc1ccc(NC(=O)Nc2ccc3c(c2)CCN(C(=O)O[C@H]2CC[C@H](CC(=O)O)CC2)C3)cc1F [Example 30, trans-6-[3-(3-fluoro-4-methyl-phenyl)-ureido]-3,4-dihydro-1H-isoquinoline-2-carboxylic acid 4-carboxymethyl-cyclohexyl ester]",≥ 50%
5,"O=C(O)C[C@H]1CC[C@H](OC(=O)N2CCc3cc(NC(=O)Nc4cc(F)cc(F)c4)ccc3C2)CC1 [Example 31, trans-6-[3-(3,5-difluoro-phenyl)-ureido]-3,4-dihydro-1H-isoquinoline-2-carboxylic acid 4-carboxymethyl-cyclohexyl ester]",≥ 50%
6,"O=C(O)C[C@H]1CC[C@H](OC(=O)N2CCc3cc(NC(=O)Nc4ccc(F)c(Cl)c4)ccc3C2)CC1 [Example 32, trans-6-[3-(3-chloro-4-fluoro-phenyl)-ureido]-3,4-dihydro-1H-isoquinoline-2-carboxylic acid 4-carboxymethyl-cyclohexyl ester]",≥ 50%
7,"Cc1cc(C)cc(NC(=O)Nc2ccc3c(c2)CCN(C(=O)O[C@H]2CC[C@H](CC(=O)O)CC2)C3)c1 [Example 33, trans-6-[3-(3,5-dimethyl-phenyl)-ureido]-3,4-dihydro-1H-isoquinoline-2-carboxylic acid 4-carboxymethyl-cyclohexyl ester]",≥ 50%
8,"Cc1ccc(NC(=O)Nc2ccc3c(c2)CCN(C(=O)O[C@H]2CC[C@H](CC(=O)O)CC2)C3)cc1Cl [Example 34, trans-6-[3-(3-chloro-4-methyl-phenyl)-ureido]-3,4-dihydro-1H-isoquinoline-2-carboxylic acid 4-carboxymethyl-cyclohexyl ester]",≥ 50%
9,"Cc1cc(NC(=O)Nc2ccc3c(c2)CCN(C(=O)O[C@H]2CC[C@H](CC(=O)O)CC2)C3)ccc1F [Example 38, trans-6-[3-(4-fluoro-3-methyl-phenyl)-ureido]-3,4-dihydro-1H-isoquinoline-2-carboxylic acid 4-carboxymethyl-cyclohexyl ester]",≥ 50%
10,"COc1cc(NC(=O)Nc2ccc3c(c2)CCN(C(=O)O[C@H]2CC[C@H](CC(=O)O)CC2)C3)cc(OC)c1 [Example 39, trans-6-[3-(3,5-dimethoxy-phenyl)-ureido]-3,4-dihydro-1H-isoquinoline-2-carboxylic acid 4-carboxymethyl-cyclohexyl ester]",≥ 50%
11,"O=C(O)C[C@H]1CC[C@H](OC(=O)N2CCc3cc(NC(=O)Nc4ccc(Cl)c(Cl)c4)ccc3C2)CC1 [Example 40, trans-6-[3-(3,4-dichloro-phenyl)-ureido]-3,4-dihydro-1H-isoquinoline-2-carboxylic acid 4-carboxymethyl-cyclohexyl ester]",≥ 50%
12,"O=C(O)C[C@H]1CC[C@H](OC(=O)N2CCc3cc(NC(=O)Nc4cc(Cl)cc(Cl)c4)ccc3C2)CC1 [Example 43, trans-6-[3-(3,5-dichloro-phenyl)-ureido]-3,4-dihydro-1H-isoquinoline-2-carboxylic acid 4-carboxymethyl-cyclohexyl ester]",≥ 50%
13,"COc1ccc(NC(=O)Nc2ccc3c(c2)CCN(C(=O)O[C@H]2CC[C@H](CC(=O)O)CC2)C3)cc1OC [Example 44, trans-6-[3-(3,4-dimethoxy-phenyl)-ureido]-3,4-dihydro-1H-isoquinoline-2-carboxylic acid 4-carboxymethyl-cyclohexyl ester]",≥ 50%
14,"O=C(O)C[C@H]1CC[C@H](OC(=O)N2CCc3cc(NC(=O)Nc4cccc(Cl)c4)ccc3C2)CC1 [Example 46, trans-6-[3-(3-chloro-phenyl)-ureido]-3,4-dihydro-1H-isoquinoline-2-carboxylic acid 4-carboxymethyl-cyclohexyl ester]",≥ 50%

# Other lines, results leading:
row,inhibition at 0.05 µg/mL,SMILES
1,≥ 50%,"O=C(O)C[C@H]1CC[C@H](OC(=O)N2CCc3cc(NC(=O)Nc4ccccc4Cl)ccc3C2)CC1 [Example 2, trans-6-[3-(2-chloro-phenyl)-ureido]-3,4-dihydro-1H-isoquinoline-2-carboxylic acid 4-carboxymethyl-cyclohexyl ester]"
2,≥ 50%,"Cc1cccc(NC(=O)Nc2ccc3c(c2)CCN(C(=O)O[C@H]2CC[C@H](CC(=O)O)CC2)C3)c1Cl [Example 27, trans-6-[3-(2-chloro-3-methyl-phenyl)-ureido]-3,4-dihydro-1H-isoquinoline-2-carboxylic acid 4-carboxymethyl-cyclohexyl ester]"
3,≥ 50%,"Cc1cccc(NC(=O)Nc2ccc3c(c2)CCN(C(=O)O[C@H]2CC[C@H](CC(=O)O)CC2)C3)c1C [Example 35, trans-6-[3-(2,3-dimethyl-phenyl)-ureido]-3,4-dihydro-1H-isoquinoline-2-carboxylic acid 4-carboxymethyl-cyclohexyl ester]"
4,≥ 50%,"Cc1c(Cl)cccc1NC(=O)Nc1ccc2c(c1)CCN(C(=O)O[C@H]1CC[C@H](CC(=O)O)CC1)C2 [Example 36, trans-6-[3-(3-chloro-2-methyl-phenyl)-ureido]-3,4-dihydro-1H-isoquinoline-2-carboxylic acid 4-carboxymethyl-cyclohexyl ester]"
5,≥ 50%,"O=C(O)C[C@H]1CC[C@H](OC(=O)N2CCc3cc(NC(=O)Nc4cccc(Cl)c4Cl)ccc3C2)CC1 [Example 37, trans-6-[3-(2,3-dichloro-phenyl)-ureido]-3,4-dihydro-1H-isoquinoline-2-carboxylic acid 4-carboxymethyl-cyclohexyl ester]"
6,≥ 50%,"COc1ccc(NC(=O)Nc2ccc3c(c2)CCN(C(=O)O[C@H]2CC[C@H](CC(=O)O)CC2)C3)cc1Cl [Example 41, trans-6-[3-(3-chloro-4-methoxy-phenyl)-ureido]-3,4-dihydro-1H-isoquinoline-2-carboxylic acid 4-carboxymethyl-cyclohexyl ester]"
7,≥ 50%,"COc1cccc(NC(=O)Nc2ccc3c(c2)CCN(C(=O)O[C@H]2CC[C@H](CC(=O)O)CC2)C3)c1F [Example 42, trans-6-[3-(2-fluoro-3-methoxy-phenyl)-ureido]-3,4-dihydro-1H-isoquinoline-2-carboxylic acid 4-carboxymethyl-cyclohexyl ester]"
8,≥ 50%,"COc1ccc(NC(=O)Nc2ccc3c(c2)CCN(C(=O)O[C@H]2CC[C@H](CC(=O)O)CC2)C3)cc1F [Example 45, trans-6-[3-(3-fluoro-4-methoxy-phenyl)-ureido]-3,4-dihydro-1H-isoquinoline-2-carboxylic acid 4-carboxymethyl-cyclohexyl ester]"
